For test [1], the target named is T1, CDK1/Cyclin B1, GST-tag (Homo sapiens, UniProt P06493).
T1 construct: GST
As to the kind of experiment: CDK1/Cyclin B1 biochemical phosphorylation assay (Caliper mobility shift). The conditions noted are these: apparent IC50; 1.0 mM ATP or ATP Km; 1.5 nM enzyme; 25° C. The essentials: (§1)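 7.5 µM 5-FAM-QSPKKG-CONH2 peptide phosphorylated by CDK2/Cyclin E (1.25 nM) or GST-CDK1/Cyclin B1 (1.5 nM) at 1.0 mM ATP or ATP Km, in HEPES pH 7.5, MgCl2, Brij-35, DTT, 1% DMSO, 25 °C to 10–20% conversion. EDTA stop; Caliper mobility-shift readout; apparent IC50 from percent activity vs log concentration.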

Test [2] has as its target CDK2/Cyclin E (Homo sapiens, UniProt P24941). As to the kind of experiment: CDK2/Cyclin E biochemical phosphorylation assay (Caliper mobility shift). The conditions noted are these: apparent IC50; 1.0 mM ATP or ATP Km; 1.25 nM enzyme; 25° C.; read-out: CDK2/cyclin E1 IC50. The essentials: as §1

T1 sequence (P06493 whole entry): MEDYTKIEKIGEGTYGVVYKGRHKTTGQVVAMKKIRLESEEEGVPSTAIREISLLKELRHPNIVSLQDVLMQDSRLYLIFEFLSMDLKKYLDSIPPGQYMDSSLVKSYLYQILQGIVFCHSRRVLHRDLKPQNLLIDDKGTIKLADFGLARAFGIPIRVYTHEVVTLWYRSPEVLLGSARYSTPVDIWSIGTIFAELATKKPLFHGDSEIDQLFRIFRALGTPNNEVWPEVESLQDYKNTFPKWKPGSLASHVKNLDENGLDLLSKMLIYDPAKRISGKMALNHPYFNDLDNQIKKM
T1 sequence (P14635 whole entry partner): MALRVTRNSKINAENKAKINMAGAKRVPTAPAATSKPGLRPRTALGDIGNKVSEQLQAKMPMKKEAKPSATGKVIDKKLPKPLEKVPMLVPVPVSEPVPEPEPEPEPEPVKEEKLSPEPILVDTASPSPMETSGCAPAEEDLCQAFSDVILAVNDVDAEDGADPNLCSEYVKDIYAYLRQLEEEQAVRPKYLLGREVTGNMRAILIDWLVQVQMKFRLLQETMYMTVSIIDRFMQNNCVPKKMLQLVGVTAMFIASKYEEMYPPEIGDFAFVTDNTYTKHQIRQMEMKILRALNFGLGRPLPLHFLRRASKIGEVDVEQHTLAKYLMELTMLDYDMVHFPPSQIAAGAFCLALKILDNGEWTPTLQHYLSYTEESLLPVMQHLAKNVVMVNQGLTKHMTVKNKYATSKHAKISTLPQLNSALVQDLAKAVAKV

Take `FC(F)Oc1cc(Nc2cnc3cnn(C[C@@H]4[C@@H]5COC[C@@H]54)c3n2)n[nH]1` [Example 111, 1-(((1R,5S,6r)-3-oxabicyclo[3.1.0]hexan-6-yl)methyl)-N-(5-(difluoromethoxy)-1H-pyrazol-3-yl)-1H-pyrazolo[3,4-b]pyrazin-6-amine]: the IC50 in test [1] was no less than 500 nM; in test [2], no more than 10 nM.
`N#C[C@H]1C[C@H](Cn2ncc3ncc(Nc4cc(OC(F)F)[nH]n4)nc32)C1` (single isomer, unassigned) [Example 190, (1r,3r)-3-((6-((5-(difluoromethoxy)-1H-pyrazol-3-yl)amino)-1H-pyrazolo[3,4-b]pyrazin-1-yl)methyl)cyclobutane-1-carbonitrile or (1s,3s)-3-((6-((5-(difluoromethoxy)-1H-pyrazol-3-yl)amino)-1H-pyrazolo[3,4-b]pyrazin-1-yl)methyl)cyclobutane-1-carbonitrile]: the IC50 in test [1] was no less than 500 nM; in test [2], greater than 100 nM.
In the same order, the values of `C[C@@H]([C@H]1CCCOC1)n1ncc2ncc(Nc3cc(OC(F)F)[nH]n3)nc21` (single isomer, unassigned) [Example 215] are less than 100 nM and no more than 10 nM.
For `C[C@H](CO)Cn1ncc2ncc(Nc3cc(OC(F)F)[nH]n3)nc21` [Example 199, (S)-3-(6-((5-(difluoromethoxy)-1H-pyrazol-3-yl)amino)-1H-pyrazolo[3,4-b]pyrazin-1-yl)-2-methylpropan-1-ol], the IC50 in test [1] was no less than 500 nM; in test [2], 30 to 100 nM.
`C[C@H](c1ccccn1)n1ncc2ncc(Nc3cc(OC(F)F)[nH]n3)nc21` [Example 82, (R)-N-(5-(difluoromethoxy)-1H-pyrazol-3-yl)-1-(1-(pyridin-2-yl)ethyl)-1H-pyrazolo[3,4-b]pyrazin-6-amine]: the IC50 in test [1] is no less than 500 nM; in test [2] it was 20 to 30 nM.
In the same order, the values of `N#CC1(Cn2ncc3ncc(Nc4cc(OC(F)F)[nH]n4)nc32)CCOCC1` [Example 115, 4-((6-((5-(difluoromethoxy)-1H-pyrazol-3-yl)amino)-1H-pyrazolo[3,4-b]pyrazin-1-yl)methyl)tetrahydro-2H-pyran-4-carbonitrile] are no less than 500 nM and 30 to 100 nM.
As for `FC(F)Oc1cc(Nc2cnc3cnn(C[C@H]4COCCO4)c3n2)n[nH]1` [Example 86, (S)-1-((1,4-dioxan-2-yl)methyl)-N-(5-(difluoromethoxy)-1H-pyrazol-3-yl)-1H-pyrazolo[3,4-b]pyrazin-6-amine], the IC50 is no less than 500 nM in test [1] and no more than 10 nM in test [2].
`CC1(C)C[C@H](Cn2ncc3ncc(Nc4cc(OC(F)F)[nH]n4)nc32)C(=O)N1` (single isomer, unassigned) [Example 185, (S)-3-((6-((5-(difluoromethoxy)-1H-pyrazol-3-yl)amino)-1H-pyrazolo[3,4-b]pyrazin-1-yl)methyl)-5,5-dimethylpyrrolidin-2-one or (R)-3-((6-((5-(difluoromethoxy)-1H-pyrazol-3-yl)amino)-1H-pyrazolo[3,4-b]pyrazin-1-yl)methyl)-5,5-dimethylpyrrolidin-2-one]: the IC50 is no less than 500 nM in test [1] and 30 to 100 nM in test [2].
Taken in the same sequence, the figures for `C[C@]1(Cn2ncc3ncc(Nc4cc(OC(F)F)[nH]n4)nc32)CCOC1` (single isomer, unassigned) [Example 166, (S)-N-(5-(difluoromethoxy)-1H-pyrazol-3-yl)-1-((3-methyltetrahydrofuran-3-yl)methyl)-1H-pyrazolo[3,4-b]pyrazin-6-amine or (R)-N-(5-(difluoromethoxy)-1H-pyrazol-3-yl)-1-((3-methyltetrahydrofuran-3-yl)methyl)-1H-pyrazolo[3,4-b]pyrazin-6-amine] were 100 to 500 nM and no more than 10 nM.
With `C[C@@H](O)c1nn([C@@H](C)c2cccnc2)c2nc(Nc3cc(OC(F)F)[nH]n3)cnc12` (single isomer, unassigned) [Example 178, (S)-1-(6-((5-(difluoromethoxy)-1H-pyrazol-3-yl)amino)-1-((S)-1-(pyridin-3-yl)ethyl)-1H-pyrazolo[3,4-b]pyrazin-3-yl)ethan-1-ol or (R)-1-(6-((5-(difluoromethoxy)-1H-pyrazol-3-yl)amino)-1-((S)-1-(pyridin-3-yl)ethyl)-1H-pyrazolo[3,4-b]pyrazin-3-yl)ethan-1-ol], the IC50 in test [1] was no less than 500 nM; in test [2], no more than 10 nM.
Consider `COc1cc(Nc2cnc3cnn([C@@H](C)C4CC4)c3n2)n[nH]1` [Example 68, (S)-1-(1-cyclopropylethyl)-N-(5-methoxy-1H-pyrazol-3-yl)-1H-pyrazolo[3,4-b]pyrazin-6-amine], for which the IC50 is no less than 500 nM in test [1] and 10 to 20 nM in test [2].
Regarding `C[C@@H](c1cc(F)ccn1)n1ncc2ncc(Nc3cc(OC(F)F)[nH]n3)nc21` (single isomer, unassigned) [Example 13, (S)—N-(5-(difluoromethoxy)-1H-pyrazol-3-yl)-1-(1-(4-fluoropyridin-2-yl)ethyl)-1H-pyrazolo[3,4-b]pyrazin-6-amine or (R)—N-(5-(difluoromethoxy)-1H-pyrazol-3-yl)-1-(1-(4-fluoropyridin-2-yl)ethyl)-1H-pyrazolo[3,4-b]pyrazin-6-amine], the IC50 was less than 100 nM in test [1] and no more than 10 nM in test [2].
Consider `N#C[C@@]1(Cn2ncc3ncc(Nc4cc(OC(F)F)[nH]n4)nc32)CCOC1` (single isomer, unassigned) [Example 169, (S)-3-((6-((5-(difluoromethoxy)-1H-pyrazol-3-yl)amino)-1H-pyrazolo[3,4-b]pyrazin-1-yl)methyl)tetrahydrofuran-3-carbonitrile or (R)-3-((6-((5-(difluoromethoxy)-1H-pyrazol-3-yl)amino)-1H-pyrazolo[3,4-b]pyrazin-1-yl)methyl)tetrahydrofuran-3-carbonitrile], for which the values for the IC50 in test [1] and in test [2] were no less than 500 nM and 20 to 30 nM, respectively.
With `OC[C@@H](C1CCOCC1)n1ncc2ncc(Nc3cc(OC(F)F)[nH]n3)nc21` [Example 30, (R)-2-(6-((5-(difluoromethoxy)-1H-pyrazol-3-yl)amino)-1H-pyrazolo[3,4-b]pyrazin-1-yl)-2-(tetrahydro-2H-pyran-4-yl)ethan-1-ol], the IC50 in test [1] was no less than 500 nM; in test [2] it was 20 to 30 nM.
Turning to `COc1cc(Nc2cnc3cnn(CC45CCC(CC4)OC5)c3n2)n[nH]1` [Example 136, 1-((2-oxabicyclo[2.2.2]octan-4-yl)methyl)-N-(5-methoxy-1H-pyrazol-3-yl)-1H-pyrazolo[3,4-b]pyrazin-6-amine], the values for the IC50 in test [1] and in test [2] were no less than 500 nM and 10 to 20 nM, respectively.
In the case of `O[C@@H]1C[C@H]1Cn1ncc2ncc(Nc3cc(OC(F)F)[nH]n3)nc21` (single isomer, unassigned) [Example 179, (1R,2S)-2-((6-((5-(difluoromethoxy)-1H-pyrazol-3-yl)amino)-1H-pyrazolo[3,4-b]pyrazin-1-yl)methyl)cyclopropan-1-ol or (1S,2R)-2-((6-((5-(difluoromethoxy)-1H-pyrazol-3-yl)amino)-1H-pyrazolo[3,4-b]pyrazin-1-yl)methyl)cyclopropan-1-ol], the IC50 in test [1] is no less than 500 nM; in test [2], 30 to 100 nM.
Turning to `FC(F)Oc1cc(Nc2cnc3cnn(C[C@H]4CCCO4)c3n2)n[nH]1` [Example 113, (R)-N-(5-(difluoromethoxy)-1H-pyrazol-3-yl)-1-((tetrahydrofuran-2-yl)methyl)-1H-pyrazolo[3,4-b]pyrazin-6-amine], the IC50 in test [1] was no less than 500 nM; in test [2], 30 to 100 nM.
In the same order, the values of `C[C@@H](c1cncc(F)c1)n1ncc2ncc(Nc3cc(OC(F)F)[nH]n3)nc21` (single isomer, unassigned) [Example 153, (S)-N-(5-(difluoromethoxy)-1H-pyrazol-3-yl)-1-(1-(5-fluoropyridin-3-yl)ethyl)-1H-pyrazolo[3,4-b]pyrazin-6-amine or (R)-N-(5-(difluoromethoxy)-1H-pyrazol-3-yl)-1-(1-(5-fluoropyridin-3-yl)ethyl)-1H-pyrazolo[3,4-b]pyrazin-6-amine] are no less than 500 nM and 10 to 20 nM.
On to `CC[C@@H](c1cccnc1)n1ncc2ncc(Nc3cc(OC(F)F)[nH]n3)nc21` [Example 94, (S)-N-(5-(difluoromethoxy)-1H-pyrazol-3-yl)-1-(1-(pyridin-3-yl)propyl)-1H-pyrazolo[3,4-b]pyrazin-6-amine], for which the IC50 in test [1] was no less than 500 nM; in test [2], no more than 10 nM.
With `CC(C)(C1CCOCC1)n1ncc2ncc(Nc3cc(OC(F)F)[nH]n3)nc21` [Example 127, N-(5-(difluoromethoxy)-1H-pyrazol-3-yl)-1-(2-(tetrahydro-2H-pyran-4-yl)propan-2-yl)-1H-pyrazolo[3,4-b]pyrazin-6-amine], the IC50 was no less than 500 nM in test [1] and 20 to 30 nM in test [2].
Taken in the same sequence, the figures for `C[C@@H](C1CCOCC1)n1nc(F)c2ncc(Nc3cc(OC(F)F)[nH]n3)nc21` [Example 124, (S)-N-(5-(difluoromethoxy)-1H-pyrazol-3-yl)-3-fluoro-1-(1-(tetrahydro-2H-pyran-4-yl)ethyl)-1H-pyrazolo[3,4-b]pyrazin-6-amine] were 100 to 500 nM and no more than 10 nM.
With `C[C@H]([C@H]1CCOC1)n1ncc2ncc(Nc3cc(OC(F)F)[nH]n3)nc21` (single isomer, unassigned) [Example 10], the IC50 in test [1] was less than 100 nM; in test [2], no more than 10 nM.
For `CC1(Cn2ncc3ncc(Nc4cc(OC(F)F)[nH]n4)nc32)CCOCC1` [Example 110, N-(5-(difluoromethoxy)-1H-pyrazol-3-yl)-1-((4-methyltetrahydro-2H-pyran-4-yl)methyl)-1H-pyrazolo[3,4-b]pyrazin-6-amine], the IC50 in test [1] was 100 to 500 nM; in test [2], no more than 10 nM.

The values are drawn from patent US11970498B2, “CDK2 inhibitors” (BLUEPRINT MEDICINES CORPORATION, priority 2021, dated 2024).
